From patent US9770022B2, “N-cycloalkyl-N-[(bicyclylphenyl)methylene]-(thio)carboxamide derivatives” (BAYER CROPSCIENCE AG, priority 2013, dated 2017)
Read-outs that look alike come from different tables or passages of the source.

Key:
Pyrenophora teres = assay: In vivo preventive test on Pyrenophora teres (barley); conditions: 500 ppm of active ingredient, evaluated 14 days after inoculation
Experimental: (§1) Solvent: 5% by volume of Dimethyl sulfoxide
(§2) • 10% by volume of Acetone Emulsifier: 1 μl of Tween® 80 per mg of active ingredient
(§3) The active ingredients are made soluble and homogenized in a mixture of Dimethyl sulfoxide/Acetone/Tween® 80 and then diluted in water to the desired concentration.
The young plants of barley are treated by spraying the active ingredient prepared as described above. Control plants are treated only with an aqueous solution of Acetone/Dimethyl sulfoxide/Tween® 80.
After 24 hours, the plants are contaminated by spraying the leaves with an aqueous suspension of Pyrenophora teres spores. The contaminated barley plants are incubated for 48 hours at 20° C. and at 100% relative humidity and then for 12 days at 20° C. and at 70-80% relative humidity.
The test is evaluated 14 days after the inoculation. 0% means an efficacy which corresponds to that of the control plants while an efficacy of 100% means that no disease is observed.

Alternaria brassicae = assay: In vivo preventive test on Alternaria brassicae (leaf spot on radish); conditions: 500 ppm of active ingredient, spray 24 hours before inoculation, evaluated 6 days after inoculation
Experimental: as §1, §2, §3
The young plants of radish are treated by spraying the active ingredient prepared as described above. Control plants are treated only with an aqueous solution of Acetone/Dimethyl sulfoxide/Tween® 80.
After 24 hours, the plants are contaminated by spraying the leaves with an aqueous suspension of Alternaria brassicae spores. The contaminated radish plants are incubated for 6 days at 20° C. and at 100% relative humidity.
The test is evaluated 6 days after the inoculation. 0% means an efficacy which corresponds to that of the control plants while an efficacy of 100% means that no disease is observed.

Puccinia recondita = assay: In vivo preventive test on Puccinia recondita (brown rust on wheat); conditions: 500 ppm of active ingredient, evaluated 11 days after inoculation
Experimental: as §1, §2, §3
(§4) The young plants of wheat are treated by spraying the active ingredient prepared as described above. Control plants are treated only with an aqueous solution of Acetone/Dimethyl sulfoxide/Tween® 80.
After 24 hours, the plants are contaminated by spraying the leaves with an aqueous suspension of Puccinia recondita spores. The contaminated wheat plants are incubated for 24 hours at 20° C. and at 100% relative humidity and then for 10 days at 20° C. and at 70-80% relative humidity.
(§5) The test is evaluated 11 days after the inoculation. 0% means an efficacy which corresponds to that of the control plants while an efficacy of 100% means that no disease is observed.

Sphaerotheca fuliginea = assay: In vivo preventive test on Sphaerotheca fuliginea (powdery mildew on cucurbits); conditions: 500 ppm of active ingredient; gherkin; evaluated 15 days after inoculation
Experimental: as §1, §2, §3
The young plants of gherkin are treated by spraying the active ingredient prepared as described above. Control plants are treated only with an aqueous solution of Acetone/Dimethyl sulfoxide/Tween® 80.
After 24 hours, the plants are contaminated by spraying the leaves with an aqueous suspension of Sphaerotheca fuliginea spores. The contaminated gherkin plants are incubated for 72 hours at 18° C. and at 100% relative humidity and then for 12 days at 20° C. and at 70-80% relative humidity.
The test is evaluated 15 days after the inoculation. 0% means an efficacy which corresponds to that of the control plants while an efficacy of 100% means that no disease is observed.

[1] = log P by HPLC on reversed-phase column (C 18), EEC Directive 79/831 Annex V.A8; format: physicochemical; conditions: Table 1, HPLC C 18, 40° C., 0.1% aqueous formic acid and acetonitrile, gradient 10% to 90% acetonitrile, two values = mixture of endo and exo isomers
Experimental: In table 1, the log P values were determined in accordance with EEC Directive 79/831 Annex V.A8 by HPLC (High Performance Liquid Chromatography) on a reversed-phase column (C 18), using the method described below:
Temperature: 40° C.; Mobile phases: 0.1% aqueous formic acid and acetonitrile; linear gradient from 10% acetonitrile to 90% acetonitrile.
Calibration was carried out using unbranched alkan-2-ones (comprising 3 to 16 carbon atoms) with known log P values (determination of the log P values by the retention times using linear interpolation between two successive alkanones). lambda-max-values were determined using UV-spectra from 200 nm to 400 nm and the peak values of the chromatographic signals.

Septoria tritici = assay: In vivo preventive test on Septoria tritici (wheat); conditions: 500 ppm of active ingredient, evaluated 24 days after inoculation
Experimental: as §1, §2, §3, §4
After 24 hours, the plants are contaminated by spraying the leaves with an aqueous suspension of Septoria tritici spores. The contaminated wheat plants are incubated for 72 hours at 18° C. and at 100% relative humidity and then for 21 days at 20° C. and at 90% relative humidity.
The test is evaluated 24 days after the inoculation. 0% means an efficacy which corresponds to that of the control plants while an efficacy of 100% means that no disease is observed.

Uromyces appendiculatus = assay: In vivo preventive test on Uromyces appendiculatus (bean rust); conditions: Uromyces appendiculatus, 264 h
Experimental: as §1, §2, §3
The young plants of bean are treated by spraying the active ingredient prepared as described above. Control plants are treated only with an aqueous solution of Acetone/Dimethyl sulfoxide/Tween® 80.
After 24 hours, the plants are contaminated by spraying the leaves with an aqueous suspension of Uromyces appendiculatus spores. The contaminated bean plants are incubated for 24 hours at 20° C. and at 100% relative humidity and then for 10 days at 20° C. and at 70-80% relative humidity.
as §5

SMILES | Efficacy (Pyrenophora teres) [%] | Efficacy (Alternaria brassicae) [%] | Efficacy (Puccinia recondita) [%] | Efficacy (Sphaerotheca fuliginea) [%] | logP [1] | Efficacy (Septoria tritici) [%] | pest or weed control at 500 ppm (Uromyces appendiculatus; read-out: Efficacy, 500 ppm of active ingredient, evaluated 11 days after inoculation) [%] | pest or weed control at 500 ppm (Uromyces appendiculatus; read-out: Efficacy, 500 ppm, evaluated 11 days after inoculation, Table F2 comparison) [%] | pest or weed control at 500 ppm (Uromyces appendiculatus; read-out: Efficacy, 500 ppm, evaluated 11 days after inoculation, Table F3 comparison) [%] | chromatographic logP ([1]; reversed-phase HPLC column (C 18))
Cn1nc(C(F)F)c(C(=O)N(Cc2ccccc2C23CCCCCC2C3(Cl)Cl)C2CC2)c1F (stereo not shown) [I.13] | 75 | 75 | 81 | 100 | 5.17 | 88 | – | – | – | –
CC(c1ccccc1C1CC2CCC1C2)N(C(=O)c1c(C(F)F)nn(C)c1F)C1CC1 (stereo not shown) [I.15, N-{1-[2-(bicyclo[2.2.1]hept-2-yl)phenyl]ethyl}-N-cyclopropyl-3-(difluoromethyl)-5-fluoro-1-methyl-1H-pyrazole-4-carboxamide] | 100 | 97 | 88 | 100 | 4.98 | 100 | 88 | ≥ 80 | ≥ 80 | 4.91
CC(C)c1ccc(C2=CC3CCC2(C)C3(C)C)cc1CN(C(=O)c1c(C(F)F)nn(C)c1F)C1CC1 (stereo not shown) [I.16] | 94 | 79 | 94 | 100 | 6.46 | 100 | – | – | – | –
